{"source": "patent US4704400A", "about": "“Medicarpin derivatives and analogs” (Merck & Co., Inc., priority 1986, dated 1987)", "key": {"prostaglandin": {"system": "prostaglandin", "conditions": "isolated from Dalbergia Odorifera T. Chen.; cited from earlier work"}, "[1]": {"system": "leukotriene C4 production in CXBG cells", "assay": "Inhibition of CXBG leukotriene production (leukotriene C4 by enzyme immunoassay, A23187-stimulated cells)", "type": "cell-based, mice", "conditions": "A23187 stimulation 10 minutes at 37°, inhibitor preincubated 5 minutes", "method": "(§1) Representative compounds of Formula I have been tested using the following assay to determine their mammalian leukotriene biosynthesis inhibiting activity and other relevant activities:\n(§2) CXBG cells grown intraperitoneally in CB4 B6 /F1 /J mice were washed 5 times in Dulbeccos phosphate buffered saline without calcium or magnesium, suspended in medium 199 (Gibco) at 2×10^6 cells/ml, and incubated 15 minutes at 37°. Inhibitor solutions in methanol were incubated with the cells (10 μl/600 μl cells), for 5 minutes at 37°, and the cells were stimulated with 60 μl A23187 (50 μg/ml) for 10 minutes at 37°. Aliquots were removed for measurement of leukotriene C4 or thromboxane B2 by enzyme immunoassay as previously reported (D. K. Miller, et al., J. Immunological Methods, 81, 169-185, 1985). The percentage inhibition was calculated by the following: [formula]\n(§3) IC50 s were determined graphically."}, "[2]": {"system": "thromboxane B2 production in CXBG cells", "assay": "Inhibition of CXBG prostoglandin production (thromboxane B2 by enzyme immunoassay, A23187-stimulated cells)", "type": "cell-based, mice", "conditions": "A23187 stimulation 10 minutes at 37°, inhibitor preincubated 5 minutes", "method": "as §1, §2, §3"}}, "data": [{"molecule": "COc1ccc2c(c1)O[C@H]1c3ccc(O)cc3OC[C@@H]21", "note": "(relative stereo) [medicarpin]", "values": [{"measurement": "prostaglandin inhibition", "setting": "prostaglandin", "value": "negative results"}]}, {"molecule": "(iso)medicarpin", "values": [{"measurement": "IC50, LTC4", "setting": "[1]", "value": 0.1, "unit": "µg/mL"}, {"measurement": "IC50, TXB2", "setting": "[2]", "value": "> 5", "unit": "µg/mL"}]}]}
